Data: US9113629B2, “4-amino-6-(4-substituted-phenyl)-picolinates and 6-amino-2-(4-substituted-phenyl)-pyrimidine-4-carboxylates and their use as herbicides” (DOW AGROSCIENCES LLC, priority 2013, dated 2015)
Read-outs that look alike come from different tables or passages of the source.

Experiments:
[1] = test system: Key Broadleaf Weed and Crop Species; assay: Post-emergent Test II herbicidal activity (Table 5); format: in vivo; conditions: post-emergence, 336 h, post-emergent, 14 days after application; for pest or weed control at 70 g/ha: 70 g ai/ha; for pest or weed control at 140 g/ha: 140 g ai/ha
Summary of the method: (§1)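 Post-emergence foliar spray, 187 L/ha, track sprayer at 43 cm above canopy. Carrier: acetone/water/IPA/DMSO/Atplus 411F/Triton X-155. Plants at 1st–2nd true leaf; subirrigated afterwards; % injury scored visually at 14 d.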

[2] = test system: Key Grass and Sedge Weeds as well as Grass Crops; assay: Post-emergent Test II herbicidal activity (Table 6); format: in vivo; conditions: post-emergence, 336 h; for pest or weed control at 70 g/ha: application rate 70 g ai/ha; for pest or weed control at 140 g/ha: application rate 140 g ai/ha
Summary of the method: as §1

[3] = ABUTH: velvetleaf (Abutilon theophrasti), read-out: Visual Growth Reduction (%) 14 Days After Application ABUTH
[4] = AMARE: redroot pigweed (Amaranthus retroflexus), read-out: Visual Growth Reduction (%) 14 Days After Application AMARE
[5] = BRSNN: oilseed-rape, canola (Brassica napus), read-out: Visual Growth Reduction (%) 14 Days After Application BRSNN
[6] = CHEAL: lambsquarters (Chenopodium album), read-out: Visual Growth Reduction (%) 14 Days After Application CHEAL
[7] = EPHHL: wild poinsettia (Euphorbia heterophylla), read-out: Visual Growth Reduction (%) 14 Days After Application EPHHL
[8] = HELAN: sunflower (Helianthus annuus), read-out: Visual Growth Reduction (%) 14 Days After Application HELAN
[9] = VIOTR: wild pansy (Viola tricolor), read-out: Visual Growth Reduction (%) 14 Days After Application VIOTR
[10] = Triticum aestivum, TRZSS (wheat), read-out: Visual Growth Reduction (%) 14 Days After Application, TRZSS
[11] = CYPES: yellow nutsedge (Cyperus esculentus), read-out: Visual Growth Reduction (%) 14 Days After Application, CYPES
[12] = DIGSA: crabgrass (Digitaria sanguinalis), read-out: Visual Growth Reduction (%) 14 Days After Application, DIGSA
[13] = ECHCG: barnyardgrass (Echinochloa crus-galli), read-out: Visual Growth Reduction (%) 14 Days After Application, ECHCG
[14] = ORYSA: rice (Oryza sativa), read-out: Visual Growth Reduction (%) 14 Days After Application, ORYSA
[15] = SETFA: giant foxtail (Setaria faberi), read-out: Visual Growth Reduction (%) 14 Days After Application, SETFA
[16] = SORVU: grain sorghum (Sorghum vulgare), read-out: Visual Growth Reduction (%) 14 Days After Application, SORVU
[17] = ZEAMX: maize, corn (Zea mays), read-out: Visual Growth Reduction (%) 14 Days After Application, ZEAMX

SMILES | pest or weed control at 70 g/ha [1, 3] [%] | pest or weed control at 140 g/ha [1, 3] [%] | pest or weed control at 70 g/ha [1, 4] [%] | pest or weed control at 140 g/ha [1, 4] [%] | pest or weed control at 70 g/ha [1, 5] [%] | pest or weed control at 140 g/ha [1, 5] [%] | pest or weed control at 70 g/ha [1, 6] [%] | pest or weed control at 140 g/ha [1, 6] [%] | pest or weed control at 70 g/ha [1, 7] [%] | pest or weed control at 140 g/ha [1, 7] [%] | pest or weed control at 70 g/ha [1, 8] [%] | pest or weed control at 140 g/ha [1, 8] [%] | pest or weed control at 70 g/ha [1, 9] [%] | pest or weed control at 140 g/ha [1, 9] [%] | pest or weed control at 70 g/ha [2, 10] [%] | pest or weed control at 140 g/ha [2, 10] [%] | pest or weed control at 70 g/ha [2, 11] [%] | pest or weed control at 140 g/ha [2, 11] [%] | pest or weed control at 70 g/ha [2, 12] [%] | pest or weed control at 140 g/ha [2, 12] [%] | other results
C=Cc1c(C(=O)O)nc(-c2ccc(C#N)cc2)c(F)c1N [Compound 150] | 45 to 59 | 60 to 74 | 95 to 100 | 95 to 100 | 45 to 59 | 60 to 74 | 85 to 94 | 85 to 94 | 95 to 100 | 95 to 100 | 95 to 100 | 95 to 100 | 0 to 29 | 0 to 29 | 30 to 44 | 45 to 59 | 0 to 29 | 45 to 59 | 0 to 29 | 0 to 29 | pest or weed control at 70 g/ha [2, 13]: 0 to 29%; pest or weed control at 140 g/ha [2, 13]: 0 to 29%; pest or weed control at 70 g/ha [2, 14]: 0 to 29%; pest or weed control at 140 g/ha [2, 14]: 0 to 29%; pest or weed control at 70 g/ha [2, 15]: 0 to 29%; pest or weed control at 140 g/ha [2, 15]: 60 to 74%; pest or weed control at 70 g/ha [2, 16]: 45 to 59%; pest or weed control at 140 g/ha [2, 16]: 45 to 59%; pest or weed control at 70 g/ha [2, 17]: 45 to 59%; pest or weed control at 140 g/ha [2, 17]: 60 to 74%
COC(=O)c1nc(-c2ccc(C#N)c(F)c2)c(C)c(N)c1Cl [Compound 155, Methyl 4-amino-3-chloro-6-(4-cyano-3-fluorophenyl)-5-methylpicolinate] | 0 to 29 | 0 to 29 | 0 to 29 | 0 to 29 | 45 to 59 | 60 to 74 | 85 to 94 | 95 to 100 | 0 to 29 | 0 to 29 | 85 to 94 | 85 to 94 | 0 to 29 | 0 to 29 | 0 to 29 | 0 to 29 | 0 to 29 | 0 to 29 | 0 to 29 | 0 to 29 | pest or weed control at 70 g/ha [2, 13]: 0 to 29%; pest or weed control at 140 g/ha [2, 13]: 0 to 29%; pest or weed control at 70 g/ha [2, 14]: 0 to 29%; pest or weed control at 140 g/ha [2, 14]: 0 to 29%; pest or weed control at 70 g/ha [2, 15]: 0 to 29%; pest or weed control at 140 g/ha [2, 15]: 0 to 29%; pest or weed control at 70 g/ha [2, 16]: 0 to 29%; pest or weed control at 140 g/ha [2, 16]: 0 to 29%; pest or weed control at 70 g/ha [2, 17]: 0 to 29%; pest or weed control at 140 g/ha [2, 17]: 0 to 29%
